In patent US8901118B2, “Compounds and methods for kinase modulation, and indications therefor” (Plexxikon Inc., priority 2010, dated 2014) one finds IC50 data, which are given here for 10 compounds.

One assay concerns the target TrkA kinase (Homo sapiens, UniProt P04629). As to the kind of experiment: TrkA kinase biochemical activity assay (AlphaScreen). As to conditions: 100 μM ATP; read-out: Biochemical Inhibition IC50 TrkA. The method in brief: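 IC50 values come from AlphaScreen PY20/streptavidin bead signal versus compound concentration. Kinase reaction: 1 ng/well TrkA, 100 μM ATP, 30 nM biotin-(E4Y)10 substrate, Mn2+-containing Hepes buffer pH 7.5, 5% DMSO, 40 min, room temperature; TrkC assayed by the same approach.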

A further assay addresses CYP2C19 (Homo sapiens, UniProt P33261). Kind of assay: CYP2C19 inhibition (fluorescent substrate CEC). As to conditions: read-out: Cyp IC50 2C19. It counts as in vitro ADME. The method in brief: (§1)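 Test compound titrated 1:1 across ten concentrations; metabolite fluorescence measured after 37 °C incubation of 15 min (CYP1A2), 30 min (CYP2C19, CYP2D6) or 45 min (CYP2C9). IC50 from signal versus concentration.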

The target of another assay is CYP2C9 (Homo sapiens, UniProt P11712). As to the kind of experiment: CYP2C9 inhibition (fluorescent substrate MFC). As to conditions: read-out: Cyp IC50 2C9. It counts as in vitro ADME. The method in brief:
as §1

The next assay has as its target CYP2D6 (Homo sapiens, UniProt P10635). Kind of assay: CYP2D6 inhibition (fluorescent substrate AMMC). It counts as in vitro ADME. As to conditions: read-out: Cyp IC50 2D6. The method in brief: as §1
For the next assay, the target named is CYP3A4(BFC) (Homo sapiens, UniProt P08684). As to the kind of experiment: CYP3A4(BFC) inhibition. The assay is classed as in vitro ADME. As to conditions: CYP3A4, substrate BFC; read-out: Cyp IC50 3A4(BFC). The procedure, abridged: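 This fluorescence assay tracks how test compounds reduce CYP3A4 turnover of BFC, with enzyme and substrate from BD Biosciences. A 10-point 1:1 dilution series in cofactor mix (1.3% NADPH Regeneration Solution A, 1.04% Solution B, 5% acetonitrile, 0.05% DMSO) was dispensed at 10 μL into 384 well plates, preincubated 10 minutes at 37° C, then incubated 30 min and read on a Tecan Safire 2.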

Structures are written as SMILES.

CYP3A4(BFC), sequence (P08684 whole entry): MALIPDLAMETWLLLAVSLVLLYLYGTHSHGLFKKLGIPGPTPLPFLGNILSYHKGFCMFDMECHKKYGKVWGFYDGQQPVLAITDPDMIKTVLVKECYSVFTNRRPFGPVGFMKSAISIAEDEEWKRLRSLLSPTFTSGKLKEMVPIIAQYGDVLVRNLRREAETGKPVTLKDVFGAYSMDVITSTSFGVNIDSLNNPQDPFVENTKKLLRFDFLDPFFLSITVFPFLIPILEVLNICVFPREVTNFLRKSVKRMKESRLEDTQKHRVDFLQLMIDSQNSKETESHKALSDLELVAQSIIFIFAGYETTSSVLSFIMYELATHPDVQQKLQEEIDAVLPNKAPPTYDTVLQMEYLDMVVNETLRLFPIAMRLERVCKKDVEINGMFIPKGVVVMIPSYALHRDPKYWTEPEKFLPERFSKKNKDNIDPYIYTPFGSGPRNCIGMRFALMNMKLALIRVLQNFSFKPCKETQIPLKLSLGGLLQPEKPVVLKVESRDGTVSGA
CYP2D6, sequence (P10635 whole entry): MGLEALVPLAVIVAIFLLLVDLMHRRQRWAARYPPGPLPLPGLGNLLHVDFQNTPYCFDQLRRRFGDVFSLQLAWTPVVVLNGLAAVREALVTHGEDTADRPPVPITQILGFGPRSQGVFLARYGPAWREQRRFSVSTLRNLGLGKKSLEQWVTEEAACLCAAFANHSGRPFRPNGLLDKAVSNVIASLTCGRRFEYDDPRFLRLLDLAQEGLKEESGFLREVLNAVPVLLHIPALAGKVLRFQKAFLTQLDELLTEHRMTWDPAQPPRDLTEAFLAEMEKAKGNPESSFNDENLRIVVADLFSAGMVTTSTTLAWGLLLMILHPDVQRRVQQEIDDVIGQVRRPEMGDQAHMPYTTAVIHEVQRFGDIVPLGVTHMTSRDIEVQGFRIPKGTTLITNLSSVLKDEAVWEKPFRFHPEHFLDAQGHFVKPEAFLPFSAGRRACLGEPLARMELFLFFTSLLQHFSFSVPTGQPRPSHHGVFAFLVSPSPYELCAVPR
CYP2C9, sequence (P11712 whole entry): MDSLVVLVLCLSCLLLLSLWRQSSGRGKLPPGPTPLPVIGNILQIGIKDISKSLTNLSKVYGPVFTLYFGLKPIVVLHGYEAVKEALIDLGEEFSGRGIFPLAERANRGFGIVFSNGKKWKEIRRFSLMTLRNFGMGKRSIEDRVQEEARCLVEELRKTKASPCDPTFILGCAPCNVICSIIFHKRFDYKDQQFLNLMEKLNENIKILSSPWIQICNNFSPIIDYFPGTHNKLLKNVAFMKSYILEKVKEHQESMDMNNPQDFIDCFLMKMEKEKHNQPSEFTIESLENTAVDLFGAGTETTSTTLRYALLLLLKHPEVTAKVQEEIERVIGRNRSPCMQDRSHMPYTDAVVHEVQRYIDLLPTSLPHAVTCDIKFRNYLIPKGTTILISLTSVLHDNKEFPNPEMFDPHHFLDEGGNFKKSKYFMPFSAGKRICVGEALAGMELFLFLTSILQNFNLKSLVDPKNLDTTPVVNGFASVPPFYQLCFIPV
CYP2C19, sequence (P33261 whole entry): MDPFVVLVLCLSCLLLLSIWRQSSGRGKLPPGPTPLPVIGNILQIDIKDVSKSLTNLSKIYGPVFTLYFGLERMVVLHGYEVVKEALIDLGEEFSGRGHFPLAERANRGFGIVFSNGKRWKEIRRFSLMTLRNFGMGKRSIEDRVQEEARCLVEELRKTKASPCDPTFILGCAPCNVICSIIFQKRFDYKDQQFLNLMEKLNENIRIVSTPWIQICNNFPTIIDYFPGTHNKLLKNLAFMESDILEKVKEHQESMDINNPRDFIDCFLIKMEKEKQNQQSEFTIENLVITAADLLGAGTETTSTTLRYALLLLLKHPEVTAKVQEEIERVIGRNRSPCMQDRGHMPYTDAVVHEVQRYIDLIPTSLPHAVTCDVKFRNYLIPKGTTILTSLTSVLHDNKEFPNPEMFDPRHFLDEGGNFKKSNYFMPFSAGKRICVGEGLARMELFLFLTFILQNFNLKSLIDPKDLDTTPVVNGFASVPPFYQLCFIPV
TrkA kinase, sequence (P04629 33-796): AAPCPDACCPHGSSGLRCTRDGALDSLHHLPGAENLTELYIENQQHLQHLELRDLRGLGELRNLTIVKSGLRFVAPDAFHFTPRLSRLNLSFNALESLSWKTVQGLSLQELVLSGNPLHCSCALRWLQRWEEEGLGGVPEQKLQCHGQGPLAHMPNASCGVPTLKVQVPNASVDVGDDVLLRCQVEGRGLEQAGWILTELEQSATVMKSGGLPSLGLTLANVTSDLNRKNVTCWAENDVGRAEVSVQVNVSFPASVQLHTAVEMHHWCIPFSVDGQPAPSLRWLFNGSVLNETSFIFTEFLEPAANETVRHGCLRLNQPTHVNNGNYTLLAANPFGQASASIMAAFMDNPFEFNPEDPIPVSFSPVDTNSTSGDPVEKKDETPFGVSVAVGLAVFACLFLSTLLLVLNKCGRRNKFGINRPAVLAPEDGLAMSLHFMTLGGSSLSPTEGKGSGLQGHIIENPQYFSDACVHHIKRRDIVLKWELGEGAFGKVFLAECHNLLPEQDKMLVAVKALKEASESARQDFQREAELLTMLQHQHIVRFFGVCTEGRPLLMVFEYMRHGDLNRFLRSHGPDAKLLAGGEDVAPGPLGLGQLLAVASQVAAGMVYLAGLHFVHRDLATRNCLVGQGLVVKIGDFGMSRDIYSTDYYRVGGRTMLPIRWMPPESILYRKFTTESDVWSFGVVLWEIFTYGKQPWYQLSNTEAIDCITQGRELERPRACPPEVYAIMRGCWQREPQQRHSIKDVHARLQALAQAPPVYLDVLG

`CCc1ccc(Nc2ccc(C(=O)c3c[nH]c4ncnc(NCC5CC5)c34)c(F)n2)cn1` [Compound P-4118, [4-(cyclopropylmethylamino)-7H-pyrrolo[2,3-d]pyrimidin-5-yl]-[6-[(6-ethyl-3-pyridyl)amino]-2-fluoro-3-pyridyl]methanone]: the half-inhibitory concentration (IC50) on TrkA kinase is < 0.01 µM; at CYP2C19, > 10 µM; on CYP2C9, > 10 µM; at CYP2D6, > 10 µM; at CYP3A4(BFC), > 10 µM.

Take `CCc1ccc(Nc2ccc(C(=O)c3c[nH]c4ncnc(NCCOC)c34)c(F)n2)cn1` [Compound P-4119, [6-[(6-ethyl-3-pyridyl)amino]-2-fluoro-3-pyridyl]-[4-(2-methoxyethylamino)-7H-pyrrolo[2,3-d]pyrimidin-5-yl]methanone]: the IC50 at TrkA kinase was < 0.01 µM; at CYP2C19, > 10 µM; on CYP2C9, > 10 µM; at CYP2D6 it was > 10 µM; at CYP3A4(BFC), > 10 µM.

As for `CCc1ccc(Nc2ccc(C(=O)c3c[nH]c4ncnc(NCC(F)(F)F)c34)c(F)n2)cn1` [Compound P-4120, [6-[(6-ethyl-3-pyridyl)amino]-2-fluoro-3-pyridyl]-[4-(2,2,2-trifluoroethylamino)-7H-pyrrolo[2,3-d]pyrimidin-5-yl]methanone], the concentration for half-maximal inhibition (IC50) was < 0.1 µM at TrkA kinase; < 5 µM on CYP2C19; < 5 µM on CYP2C9; < 5 µM at CYP2D6; > 10 µM on CYP3A4(BFC).

As for `CCc1ccc(Nc2ccc(C(=O)c3c[nH]c4ncnc(NCC(C)C)c34)c(F)n2)cn1` [Compound P-4121, [6-[(6-ethyl-3-pyridyl)amino]-2-fluoro-3-pyridyl]-[4-(isobutylamino)-7H-pyrrolo[2,3-d]pyrimidin-5-yl]methanone], the IC50 on TrkA kinase was < 0.1 µM; at CYP2C19, 5 to 10 µM; on CYP2C9, > 10 µM; on CYP2D6, > 10 µM; at CYP3A4(BFC), > 10 µM.

`CCCNc1ncnc2[nH]cc(C(=O)c3ccc(Nc4ccc(CC)nc4)nc3F)c12` [Compound P-4122, [6-[(6-ethyl-3-pyridyl)amino]-2-fluoro-3-pyridyl]-[4-(propylamino)-7H-pyrrolo[2,3-d]pyrimidin-5-yl]methanone]: the 50% inhibitory concentration (IC50) is < 0.01 µM at TrkA kinase; > 10 µM on CYP2C19; 5 to 10 µM on CYP2C9; > 10 µM on CYP2D6; > 10 µM on CYP3A4(BFC).

For the compound `CCNc1ncnc2[nH]cc(C(=O)c3ccc(Nc4ccc(CC)nc4)nc3F)c12` [Compound P-4123, [4-(ethylamino)-7H-pyrrolo[2,3-d]pyrimidin-5-yl]-[6-[(6-ethyl-3-pyridyl)amino]-2-fluoro-3-pyridyl]methanone], the IC50 is < 0.01 µM at TrkA kinase; > 10 µM at CYP2C19; > 10 µM on CYP2C9; > 10 µM at CYP2D6; > 10 µM on CYP3A4(BFC).

In the case of `CCc1ccc(Nc2ccc(C(=O)c3c[nH]c4ncnc(NC)c34)c(F)n2)cn1` [Compound P-4124, [6-[(6-ethyl-3-pyridyl)amino]-2-fluoro-3-pyridyl]-[4-(methylamino)-7H-pyrrolo[2,3-d]pyrimidin-5-yl]methanone], the IC50 is < 0.01 µM on TrkA kinase; < 5 µM on CYP2C19; < 5 µM at CYP2C9; < 5 µM on CYP2D6; > 10 µM on CYP3A4(BFC).

As for `CCc1ccc(Nc2ccc(C(=O)c3c[nH]c4ncnc(NC5CC5)c34)c(F)n2)cn1` [Compound P-4125, [4-(cyclopropylamino)-7H-pyrrolo[2,3-d]pyrimidin-5-yl]-[6-[(6-ethyl-3-pyridyl)amino]-2-fluoro-3-pyridyl]methanone], the 50% inhibitory concentration (IC50) at TrkA kinase was < 0.01 µM; on CYP2C19 it was > 10 µM; on CYP2C9, > 10 µM; at CYP2D6 it was > 5 µM; on CYP3A4(BFC), > 10 µM.

On to `COc1ccc(Nc2ccc(C(=O)c3c[nH]c4ncnc(NC5CC5)c34)c(F)n2)cn1` [Compound P-4126, [4-(cyclopropylamino)-7H-pyrrolo[2,3-d]pyrimidin-5-yl]-[2-fluoro-6-[(6-methoxy-3-pyridyl)amino]-3-pyridyl]methanone], for which the IC50 was < 0.01 µM at TrkA kinase; > 10 µM on CYP2C19; > 10 µM on CYP2C9; > 10 µM on CYP2D6; < 10 µM on CYP3A4(BFC).

Regarding `Fc1cc(Cc2c[nH]c3ncnc(NC4CC4)c23)cnc1NC1CCC(F)(F)CC1` [Compound P-4127, N-cyclopropyl-5-[[6-[(4,4-difluorocyclohexyl)amino]-5-fluoro-3-pyridyl]methyl]-7H-pyrrolo[2,3-d]pyrimidin-4-amine], the IC50 on TrkA kinase was < 0.1 µM; on CYP2C19, 5 to 10 µM; on CYP2C9 it was > 10 µM; on CYP2D6 it was > 10 µM; on CYP3A4(BFC), < 5 µM.
